For test [1], the target named is Cys242 in human PIK3CA (157-299) (Homo sapiens (Human), UniProt P42336). Kind of test: Covalent modification assay using MALDI-TOF MS. The test is classed as biochemical. The settings on record: 4 h reaction time point. In outline: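 PIK3CA (157-299), 3.33 or 1 μM in 20 mM HEPES, 150 mM NaCl, 2 mM MgCl2, pH 7.3, was incubated with compound at room temperature in the dark for 15 min, 30 min, 2 h or 4 h. Linear MALDI-TOF read-out; % modification = adduct peak height over summed heights of all protein species.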
Cys242 in human PIK3CA (157-299), sequence (P42336 157-299): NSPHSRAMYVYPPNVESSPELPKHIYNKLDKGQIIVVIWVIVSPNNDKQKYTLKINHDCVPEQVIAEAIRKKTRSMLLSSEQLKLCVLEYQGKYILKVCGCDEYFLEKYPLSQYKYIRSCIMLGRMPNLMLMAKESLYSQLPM

The next test has as its system pAKT in BT474 cells. In words: Cell-based pAKT HTRF assay in BT474 cells. The note with it: BT474 cells, 4 hr incubation, read-out: pAKT inhibition IC50 in BT474 cells. In a few lines:
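9-pt curve, top 3 μM, 3-fold steps, 0.25% DMSO; 4 hr compound exposure. Lysis, then HTRF with d2/Eu Cryptate antibody pair, 4–24 h RT. Ex 320 nm, Em 615 nm.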

[2] abbreviates: 3.33 μM protein target, 1:7.5 protein to compound ratio (compounds 1-852).
[3] abbreviates: 1 μM protein target, 1:5 protein to compound ratio (compounds 853-1279).

Like-named read-outs stand apart in the source and are kept apart here.

On to `C=CC(=O)N1Cc2cc(-c3nc(-c4ccc5c(c4)CCN(C)C5)c4ccsc4c3-c3c(F)cc(F)cc3OCCO)nn2[C@@H](C)C1` [Compound 483], for which the “% of modification” value in test [1] (setting [2]) is given as “A (percent of modification of PIK3CA protein ≥75%)”. For the same compound, in the test with pAKT in BT474 cells (Compounds 10-999), the concentration for half-maximal inhibition (IC50) (as a rule, the concentration that inhibits the measured activity by half) is less than 100 nM.

Regarding `C=CC(=O)N1CCn2nc(-c3nc(-c4ccnc(N)c4)c4ccsc4c3-c3ccc(F)cc3OCCOC)nc2C1` [Compound 186], the “% of modification” value in test [1] (setting [2]) is on record as “A (percent of modification of PIK3CA protein ≥75%)”. Also, the IC50 in the test with pAKT in BT474 cells (Compounds 10-999) was less than 100 nM.

Regarding `C=CC(=O)N1CC(n2cc(-c3nc(-c4ccc5c(c4)CS(=O)(=O)C5)c4ccsc4c3-c3ccc(F)cc3OC)cn2)C1` [Compound 95], the “% of modification” value in test [1] (setting [2]) is given as “A (percent of modification of PIK3CA protein ≥75%)”. Further, the IC50 with pAKT in BT474 cells (Compounds 10-999) is less than 100 nM.

As to `C=CC(=O)N1CCn2nc(-c3nc(-c4cnn(C)c4)c4ccsc4c3-c3ccc(Cl)cc3F)cc2C1` [Compound 284], the “% of modification” value in test [1] (setting [2]) is reported as “A (percent of modification of PIK3CA protein ≥75%)”. Also, in the test with pAKT in BT474 cells (Compounds 10-999), the IC50 was in the range of 100 to 1000 nM.

Consider `C=CC(=O)N1CCc2cc(-c3nc(-c4ccc5cn(C)nc5c4)c4ccsc4c3-c3c(F)cc(F)cc3OCCOC)nn2CC1` [Compound 1027], for which, in test [1] (setting [3]), the “% of modification” value is listed as “A (percent of modification of PIK3CA protein ≥75%)”. Also, the concentration for half-maximal inhibition (IC50) in the test on pAKT in BT474 cells (Compounds 1000-1279) is less than 100 nM.

Regarding `C=CC(=O)N1CCc2nc(-c3nc(-c4cnc5c(c4)CCN(C)C5)c4ccsc4c3-c3c(F)cc(F)cc3OCCOC)sc2C1` [Compound 521], the “% of modification” value in test [1] (setting [2]) was “A (percent of modification of PIK3CA protein ≥75%)”. Further, the half-maximal inhibitory concentration (IC50) in the test on pAKT in BT474 cells (Compounds 10-999) is less than 100 nM.

For `C=CC(=O)N1Cc2cc(-c3nc(-c4cnn(C)c4)c4ccsc4c3-c3c(F)cc(F)cc3OC)nn2C[C@H]1C` [Compound 820], in test [1] (setting [2]), the “% of modification” value is “A (percent of modification of PIK3CA protein ≥75%)”. Also, the IC50 with pAKT in BT474 cells (Compounds 10-999) was less than 100 nM.

For `C=CC(=O)N1CCc2nc(-c3nc(-c4ccc5c(c4)NC(=O)C5)c4ccsc4c3-c3c(F)cc(F)cc3OCCOC)sc2C1` [Compound 1003], the “% of modification” value in test [1] (setting [3]) is given as “A (percent of modification of PIK3CA protein ≥75%)”. Moreover, the concentration for half-maximal inhibition (IC50) with pAKT in BT474 cells (Compounds 1000-1279) was less than 100 nM.

For the compound `C=CC(=O)N1CCc2ncc(-c3nc(-c4ccc5c(c4)CCN(C)C5)c4ccsc4c3-c3c(F)cc(F)cc3OC)cc2C1` [Compound 425], the “% of modification” value in test [1] (setting [2]) is recorded as “A (percent of modification of PIK3CA protein ≥75%)”. Also, in the test with pAKT in BT474 cells (Compounds 10-999), the IC50 was less than 100 nM.

In the case of `C=CC(=O)N1CCn2nc(-c3nc(-c4ccc(=O)n(C)c4)c4ccsc4c3-c3ccc(F)cc3OC(F)F)cc2C1` [Compound 223], the “% of modification” value in test [1] (setting [2]) was “A (percent of modification of PIK3CA protein ≥75%)”. For the same compound, in the test with pAKT in BT474 cells (Compounds 10-999), the IC50 is less than 100 nM.

Turning to `C=CC(=O)N1Cc2cc(-c3nc(-c4cnc5c(cnn5C)c4)c4ccsc4c3-c3c(F)cc(F)cc3OCCO)nn2C[C@H]1C` [Compound 885], the “% of modification” value in test [1] (setting [3]) was “A (percent of modification of PIK3CA protein ≥75%)”. Also, the IC50 with pAKT in BT474 cells (Compounds 10-999) was less than 100 nM.

Consider `C=CC(=O)N1CCc2ncc(-c3nc(-c4ccc5c(c4)CN(C)CC5(F)F)c4ccsc4c3-c3c(F)cc(F)cc3OCCOC)cc2C1` [Compound 1274], for which the “% of modification” value in test [1] (setting [3]) is recorded as “A (percent of modification of PIK3CA protein ≥75%)”. Also, the 50% inhibitory concentration (IC50) in the test with pAKT in BT474 cells (Compounds 1000-1279) is less than 100 nM.

Regarding `C=CC(=O)N1CCc2nc(-c3nc(-c4ccc5c(c4)CCN(CC(F)F)CC5)c4ccsc4c3-c3c(F)cc(F)cc3OCCOC)sc2C1` [Compound 1270], the “% of modification” value in test [1] (setting [3]) is given as “A (percent of modification of PIK3CA protein ≥75%)”. In addition, the IC50 with pAKT in BT474 cells (Compounds 1000-1279) was in the range of 100 to 1000 nM.

Turning to `C=CC(=O)N1Cc2cc(-c3nc(-c4cn(C)cn4)c4ccsc4c3-c3c(F)cc(F)cc3OCCOC)nn2[C@@H](C)C1` [Compound 509], the “% of modification” value in test [1] (setting [2]) was “A (percent of modification of PIK3CA protein ≥75%)”. Further, the half-inhibitory concentration (IC50) in the test with pAKT in BT474 cells (Compounds 10-999) is less than 100 nM.

Consider `C=CC(=O)N1CCn2nc(-c3nc(-c4ccc(C(=O)NCC(F)F)cc4)c4ccsc4c3-c3c(F)cc(F)cc3OCCOC)cc2C1C` (centres unmarked) [Compound 1183], for which, in test [1] (setting [3]), the “% of modification” value is recorded as “A (percent of modification of PIK3CA protein ≥75%)”. For the same compound, in the test on pAKT in BT474 cells (Compounds 1000-1279), the IC50 is less than 100 nM.

Consider `C=CC(=O)N1CCc2nc(-c3nc(-c4cccc(C(C)(C)C#N)c4)c4ccsc4c3-c3c(F)cc(F)cc3OCCOC)sc2C1` [Compound 440], for which the “% of modification” value in test [1] (setting [2]) was “D (percent of modification <25%)”. The IC50 in the test with pAKT in BT474 cells (Compounds 10-999) fell in the range of 100 to 1000 nM.

As for `C=CC(=O)N1CCc2ccc(-c3nc(-c4cn(C)cn4)c4ccsc4c3-c3c(F)cc(F)cc3OCCO)cc2C1` (single isomer, unassigned) [Compound 1000], the “% of modification” value in test [1] (setting [3]) is listed as “A (percent of modification of PIK3CA protein ≥75%)”. Further, the IC50 in the test with pAKT in BT474 cells (Compounds 1000-1279) is less than 100 nM.

As to `C=CC(=O)N1CCn2nc(-c3nc(-c4cnnc(C)c4)c4ccsc4c3-c3c(F)cc(F)cc3OCCOC)cc2C1C` (centres unmarked) [Compound 764], in test [1] (setting [2]), the “% of modification” value is on record as “A (percent of modification of PIK3CA protein ≥75%)”. In the test with pAKT in BT474 cells (Compounds 10-999), the IC50 is less than 100 nM.

As to `C=CC(=O)N1CCn2nc(-c3nc(-c4ccnc(OCCN(C)C)c4)c4ccsc4c3-c3c(F)cc(F)cc3OCCOC)cc2C1C` (centres unmarked) [Compound 1199], in test [1] (setting [3]), the “% of modification” value was “A (percent of modification of PIK3CA protein ≥75%)”. Further, in the test with pAKT in BT474 cells (Compounds 1000-1279), the IC50 was less than 100 nM.

For the compound `C=CC(=O)N1CCn2nc(-c3nc(-c4ccc(=O)n(C(C)C)c4)c4ccsc4c3-c3c(F)cc(F)cc3OCCOC)cc2C1C` (centres unmarked) [Compound 987], the “% of modification” value in test [1] (setting [3]) was “A (percent of modification of PIK3CA protein ≥75%)”. In the test with pAKT in BT474 cells (Compounds 10-999), the IC50 is less than 100 nM.

As to `C=C(F)C(=O)N1Cc2cc(-c3nc(-c4ccc5c(c4)CCN(C)C5)c4ccsc4c3-c3c(F)cc(F)cc3OC(C)C)nn2CC1C` (single isomer, unassigned) [Compound 500], the “% of modification” value in test [1] (setting [2]) was “D (percent of modification <25%)”. For the same compound, the half-maximal inhibitory concentration (IC50) with pAKT in BT474 cells (Compounds 10-999) was greater than 3000 nM.

On to `C=CC(=O)N1CCc2ncc(-c3nc(-c4cnn(C)c4)c4ccsc4c3-c3c(F)cc(F)cc3OC)cc2C1` [Compound 405], for which the “% of modification” value in test [1] (setting [2]) was “A (percent of modification of PIK3CA protein ≥75%)”. For the same compound, the IC50 in the test on pAKT in BT474 cells (Compounds 10-999) was less than 100 nM.

As for `C=CC(=O)N1Cc2cc(-c3nc(-c4cnn(C(C)C)c4)c4ccsc4c3-c3c(F)cc(F)cc3OCCO)nn2[C@@H](C)C1` [Compound 728], in test [1] (setting [2]), the “% of modification” value was “D (percent of modification <25%)”. In the test on pAKT in BT474 cells (Compounds 10-999), the 50% inhibitory concentration (IC50) is 100 to 1000 nM.

As for `C=C(F)C(=O)N1CCn2nc(-c3nc(-c4ccc5c(c4)CCN(C)C5)c4ccsc4c3-c3ccc(F)cc3OCC)cc2C1` [Compound 305], the “% of modification” value in test [1] (setting [2]) is on record as “B (50%<percent of modification <75%)”. The half-inhibitory concentration (IC50) with pAKT in BT474 cells (Compounds 10-999) was in the range of 100 to 1000 nM.

For the compound `C=CC(=O)N1CCn2nc(-c3nc(-c4ccc(OCCN5CCC5)cc4)c4ccsc4c3-c3c(F)cc(F)cc3OCCOC)cc2C1C` (centres unmarked) [Compound 1073], the “% of modification” value in test [1] (setting [3]) is “A (percent of modification of PIK3CA protein ≥75%)”. For the same compound, the concentration for half-maximal inhibition (IC50) in the test on pAKT in BT474 cells (Compounds 1000-1279) is less than 100 nM.

On to `C=CC(=O)N1Cc2cc(-c3nc(-c4cnc5c(c4)CN(C)C5=O)c4ccsc4c3-c3c(F)cc(F)cc3OCCOC)nn2[C@@H](C)C1` [Compound 506], for which the “% of modification” value in test [1] (setting [2]) is reported as “A (percent of modification of PIK3CA protein ≥75%)”. In addition, the IC50 with pAKT in BT474 cells (Compounds 10-999) is less than 100 nM.

For `C=CC(=O)N1CCn2nc(-c3nc(-c4ccc5cnncc5c4)c4ccsc4c3-c3c(F)cc(F)cc3OCCO)cc2[C@@H]1C` [Compound 672], the “% of modification” value in test [1] (setting [2]) is reported as “A (percent of modification of PIK3CA protein ≥75%)”. The IC50 in the test with pAKT in BT474 cells (Compounds 10-999) was less than 100 nM.

Regarding `C=CC(=O)N1CC(n2cc(-c3nc(-c4cnn(CC(F)F)c4)c4ccsc4c3-c3ccc(F)cc3OCCOC)cn2)C1` [Compound 232], the “% of modification” value in test [1] (setting [2]) is “A (percent of modification of PIK3CA protein ≥75%)”. Besides, the IC50 with pAKT in BT474 cells (Compounds 10-999) is less than 100 nM.

The values are drawn from patent publication US20250230138A1, “COMPOUNDS HAVING A T-STRUCTURE FORMED BY AT LEAST FOUR CYCLES FOR USE IN THE TREATMENT OF CANCER AND OTHER INDICATIONS” (TheRas, Inc., priority 2022, published 2025).
